Format in all cases: cell-based
Experiment [1] has as its system Human neutrophils. The experiment in a line: Neutrophil adhesion under static conditions. The settings on record: fMLP-stimulated adhesion to fibrinogen; method: 40 μM and 80 μM, concentration of the value not stated. Put shortly: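 Donor buffy-coat neutrophils (3×10^6/ml, PBS with Ca/Mg, 10% FCS, pH 7.2) preincubated 30 min at 37° C with 40 μM or 80 μM compound, then stimulated 1 min at 37° C with 1 nM fMLP on fibrinogen-coated glass. Adherent cells fixed and counted by computer; mean ± SD, unpaired t-test.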

The next experiment deals with T1, FGF-2 (Homo sapiens, UniProt P09038).
T1 construct: purchased Peprotech 100-18C
In words: FGF-2 induced sprouting of HUVEC, spheroid-based cellular angiogenesis assay. The conditions noted are these: FGF-2 25 ng/mL preincubated with compound, 24 h. Summed up: (§1)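 Compound (final 100 down to 1.56×10^−6 M) was mixed with growth factor (final 25 ng/mL) for 30 min at 37°C, then added onto collagen-embedded 400-cell HUVEC spheroids.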

The target in another experiment is T2, FGF-1 (Homo sapiens, UniProt P05230).
T2 construct: purchased Peprotech 100-17A
The experiment in a line: FGF-1 induced sprouting of HUVEC, spheroid-based cellular angiogenesis assay. The settings on record: FGF-1 25 ng/mL preincubated with compound, 24 h. Put shortly:
as §1

The next experiment addresses T3, VEGF-A (Homo sapiens, UniProt P15692).
T3 construct: purchased ProQinase GmbH
T3 sequence (P15692 27-191 isoform P15692-4): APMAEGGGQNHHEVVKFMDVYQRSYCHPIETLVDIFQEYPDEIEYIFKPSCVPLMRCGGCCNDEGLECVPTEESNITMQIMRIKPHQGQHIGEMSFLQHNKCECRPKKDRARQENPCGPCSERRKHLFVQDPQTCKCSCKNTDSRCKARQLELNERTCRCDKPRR
In words: VEGF-A induced sprouting of HUVEC, spheroid-based cellular angiogenesis assay. The settings on record: VEGF-A 25 ng/mL preincubated with compound, 24 h, read-out: VEGF-A1 IC50. The method, then:
Aim of this in vitro method is to assess compounds effects on FGF-2, FGF-1, or VEGF-A induced sprouting of human umbilical vein endothelial cells (HUVEC) in the spheroid-based cellular angiogenesis assay. Before adding the growth factors to the cells, they were preincubated with the compound. Sunitinib was tested as a control (without preincubation).
IC50 values determined for the tested compounds are expressed in microM [μM] and the values for the inhibition of FGF-1, FGF2 and VEGF-A induced growth (sprouting) are listed after each compound in the examples after chemical characterization.
Sprouting test was performed on the compounds dissolved in DMSO to reach 100-fold concentrated stock solutions and dissolved in culture media. Sunitinib as reference compound was provided by ProQinase GmbH. Growth factors were purchased from rhFGF-basic (FGF-2), Peprotech, New Jersey, USA, #100-18C, Lot #0415571; rhFGF-acidic (FGF-1), Peprotech, New Jersey, USA, #100-17A, Lot #031207; hVEGF-A165 (ProQinase GmbH, Freiburg, Germany; 05.02.2010) were used for stimulation of HUVEC cells growth.
Test system: Endothelial cells from human umbilical vein (HUVEC) from pooled donors were stored frozen with 70% medium, 20% FCS, 10% DMSO at about 1×10^6 cells/ampoule. HUVEC cells, primary human umbilical vein endothelial cells (PromoCell, Heidelberg, Germany), were used after passage 3 to 4. Morphology of the cells are adherent, cobblestone-like growing as monolayer and were cultured in endothelial cell growth and basal medium (ECGM/ECBM, PromoCell). The subculture was split 1:3; every 3-5 days, seed out at ca. 1×10^4 cells/cm^2 and incubated at 37° C. with 5% CO2 with a doubling time 24-48 hours
Dilution of test compounds: 100× concentrated solutions (concerning to the final assay concentrations) of each test compound were prepared with the appropriate solvent (in DMSO or in water). These 100×compound solutions were further diluted in endothelial cell growth and basal medium (ECBM) 1:7.5 to get a 13.33× concentrated solution. 75 μl of the 13.33×solution was subsequently mixed with 25 μl of 40× concentrated stimulus (solved in ECBM), resulting in a 10×concentrated stimulus/compound mixture. This mixture (100 μl) was incubated for 30 min at 37° C. and then added to 900 μl gel, containing the HUVEC spheroids (resulting in the final assay concentration).
Test method: the experiments were pursued in modification of the originally published protocol (Korff and Augustin: J Cell Sci 112: 3249-58, 1999). In brief, spheroids were prepared as described (Korff and Augustin: J Cell Biol 143: 1341-52, 1998) by pipetting 400 HUVEC in a hanging drop on plastic dishes to allow overnight spheroid aggregation. 50 HUVEC spheroids were then seeded in 0.9 ml of a collagen gel and pipetted into individual wells of a 24 well plate to allow polymerization. The test compounds were preincubated with the growth factors (FGF-1, FGF-2 or VEGF-A final concentration 25 ng/mL) in a 10-fold concentrated solution and subsequently, 100 μl of this solution was added on top of the polymerized gel. All compounds were diluted in solvent (DMSO or water) as 100×stocks first (which means 100×stocks of each final assay concentration were prepared in solvent). Subsequently, these stocks were further diluted in medium (resulting in the 13.33×stocks of each final assay concentration) with final concentrations tested: 100, 50, 25, 12.5, 6.25, 3.13 and 1.56×10^−6 M). Plates were incubated at 37° C. for 24 hours and fixed by adding 4% PFA (Roth, Karlsruhe, Germany).
Quantification of growth factor inhibition: sprouting intensity of HUVEC spheroids treated with the growth factor and the inhibitors were quantitated by an image analysis system determining the cumulative sprout length per spheroid (CSL).

Experiment [2] deals with Human neutrophils. In words: Inhibition of ROS production in human neutrophils (isoluminol chemiluminescence). The conditions noted are these: fMLP+TNF-α stimulated PMN; for inhibition at 0.3 µM / IC50: Homo sapiens, Neutrophil. Summed up: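 Extracellular ROS measured as isoluminol-amplified chemiluminescence following 1 μM fMLP activation on fibrinogen-coated plates, readings every 25 sec over 250 sec minus HBSS/isoluminol background. Beforehand, cells were treated with compounds at 0.1, 0.3, 1, 3 or 10 μM (30 min, 37° C) and TNF-α (20 ng/ml, 10 min); duplicate or triplicate.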

For the next experiment, the target named is T4, VEGFR-2 (Homo sapiens, UniProt P35968).
T4 construct: endogenous in cells; host or cells: primary HUVEC
The experiment in a line: VEGF-165 induced phosphorylation of VEGF-Receptor on HUVEC. The conditions noted are these: HUVEC preincubated 60 min, VEGF165 25 ng/mL 2 min; read-out: VEGFR-Phosphorylation inhibition IC50.

Data on 13 compounds can be found in patent US20230150951A1, “2,5- OR 2,6-DISUBSTITUTED HYDROQUINONE DERIVATIVES WITH AT LEAST ONE CARBOXY, SULFO OR AMIDO GROUP USEFUL AS MEDICAMENTS” (OM PHARMA SA, priority 2020, published 2023).

A value given as a limit tells only on which side of the number the result lay.

T4 sequence (P35968 20-1356): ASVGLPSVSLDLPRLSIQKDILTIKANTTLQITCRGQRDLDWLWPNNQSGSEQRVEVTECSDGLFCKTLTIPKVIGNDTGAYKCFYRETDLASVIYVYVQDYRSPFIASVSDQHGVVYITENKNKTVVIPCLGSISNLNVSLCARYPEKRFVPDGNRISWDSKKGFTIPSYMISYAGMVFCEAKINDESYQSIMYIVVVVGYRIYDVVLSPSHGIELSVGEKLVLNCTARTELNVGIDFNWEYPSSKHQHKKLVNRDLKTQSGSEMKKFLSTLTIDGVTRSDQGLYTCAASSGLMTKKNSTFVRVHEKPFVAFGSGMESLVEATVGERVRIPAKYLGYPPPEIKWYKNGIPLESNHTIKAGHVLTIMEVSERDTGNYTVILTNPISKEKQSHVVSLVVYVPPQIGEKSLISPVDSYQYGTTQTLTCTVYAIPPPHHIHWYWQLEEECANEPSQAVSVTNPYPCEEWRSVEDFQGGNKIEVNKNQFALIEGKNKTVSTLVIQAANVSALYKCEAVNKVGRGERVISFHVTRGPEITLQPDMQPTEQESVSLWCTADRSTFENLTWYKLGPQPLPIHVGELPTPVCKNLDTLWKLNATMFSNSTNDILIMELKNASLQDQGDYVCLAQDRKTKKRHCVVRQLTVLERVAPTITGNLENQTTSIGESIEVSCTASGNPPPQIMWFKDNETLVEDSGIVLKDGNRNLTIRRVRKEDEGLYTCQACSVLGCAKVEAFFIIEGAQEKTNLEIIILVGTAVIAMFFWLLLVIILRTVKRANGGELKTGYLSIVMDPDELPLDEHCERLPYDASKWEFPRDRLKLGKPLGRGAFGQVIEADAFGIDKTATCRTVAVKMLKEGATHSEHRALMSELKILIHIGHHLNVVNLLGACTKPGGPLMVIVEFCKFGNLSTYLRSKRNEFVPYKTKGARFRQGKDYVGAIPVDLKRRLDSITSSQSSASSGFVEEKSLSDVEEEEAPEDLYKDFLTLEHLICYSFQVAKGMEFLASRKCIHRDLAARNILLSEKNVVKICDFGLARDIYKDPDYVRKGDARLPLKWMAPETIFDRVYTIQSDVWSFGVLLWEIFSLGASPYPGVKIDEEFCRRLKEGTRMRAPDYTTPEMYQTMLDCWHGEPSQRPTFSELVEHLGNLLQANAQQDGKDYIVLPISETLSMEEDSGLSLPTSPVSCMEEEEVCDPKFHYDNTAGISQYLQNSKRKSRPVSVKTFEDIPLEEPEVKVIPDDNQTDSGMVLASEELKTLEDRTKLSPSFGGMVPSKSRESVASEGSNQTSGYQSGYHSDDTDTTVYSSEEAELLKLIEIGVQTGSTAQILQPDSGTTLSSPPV
T1 sequence (P09038 134-288): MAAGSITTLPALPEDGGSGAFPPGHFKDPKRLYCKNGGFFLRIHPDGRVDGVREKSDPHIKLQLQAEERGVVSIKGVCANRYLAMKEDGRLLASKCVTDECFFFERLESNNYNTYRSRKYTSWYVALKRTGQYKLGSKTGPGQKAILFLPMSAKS
T2 sequence (P05230 whole entry): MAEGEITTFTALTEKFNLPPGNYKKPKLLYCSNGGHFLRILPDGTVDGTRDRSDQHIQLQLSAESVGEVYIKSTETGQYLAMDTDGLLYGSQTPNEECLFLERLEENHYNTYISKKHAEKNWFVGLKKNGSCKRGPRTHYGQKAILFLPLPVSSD

In the case of `O=C(O)Cc1cc(O)c(C(=O)Nc2ccccc2C(=O)O)cc1O` [IIIa-001a, 2-(4-(carboxymethyl)-2,5-dihydroxybenzamido)benzoic acid], the Neutrophil adhesion inhibition in the experiment on Human neutrophils [1] was found to be 30.4%. Further, the IC50 at FGF-2 is 10 µM; at FGF-1 it was 62 µM; at VEGF-A, 32 µM. The same compound came in with an inhibition at 0.3 µM in the experiment on Human neutrophils [2] (0.3 μM) of 74.8%.
In the experiment with Human neutrophils [1], `CCOC(=O)Cc1cc(O)c(C(=O)Nc2ccccc2C(=O)OC)cc1O` [IIIa-001a-E2, methyl 2-(4-(ethoxycarbonylmethyl)-2,5-dihydroxybenzamido)benzoate] came in with a Neutrophil adhesion inhibition of 44.46%. For the same compound, the IC50 on FGF-2 was 33 µM; at FGF-1, not below 200 µM; on VEGF-A, 43 µM. In the experiment with Human neutrophils [2] (0.3 μM), this compound had an inhibition at 0.3 µM of 69.7%.
In the experiment with Human neutrophils [1], `O=C(O)Cc1cc(O)c(C(=O)Nc2cc(C(=O)O)cc(C(=O)O)c2)cc1O` [IIIa-015a, 5-(4-(carboxymethyl)-2,5-dihydroxybenzamido)isophthalic acid] gave a Neutrophil adhesion inhibition of 12.13%. In addition, the IC50 at FGF-2 was 114 µM; at FGF-1 it was 16 µM; at VEGFR-2, 0.89 µM; on VEGF-A it was 202 µM. In the experiment with Human neutrophils [2] (0.3 μM), this compound registered an inhibition at 0.3 µM of 78.8%.
In the experiment on Human neutrophils [1], `O=C(O)c1cc(O)c(CSCc2cc(O)c(C(=O)O)cc2O)cc1O` [IIIc-058a, 4-((2,5-Dihydroxy-4-carboxyphenyl)methylthiomethyl)-2,5-dihydroxybenzoic acid] came in with a Neutrophil adhesion inhibition of 23%. For the same compound, the IC50 on FGF-2 came out at 12 µM; at FGF-1 it was 12 µM; on VEGFR-2, 0.29 µM; on VEGF-A, 124 µM; with Human neutrophils [2] it was 1.17 µM. This compound also had an inhibition at 0.3 µM in the experiment on Human neutrophils [2] (0.3 μM) of 61.2%.
Regarding `O=C(O)c1cc(O)cc(C(=O)Nc2c(C(=O)O)cccc2C(=O)O)c1O` [IIa-013a, 2-(3-carboxy-2,5-dihydroxybenzamido)isophthalic acid], the Neutrophil adhesion inhibition in the experiment with Human neutrophils [1] amounted to 15.75%. In addition, the IC50 on FGF-2 was 12 µM; at FGF-1, 137 µM; at VEGFR-2, not below 100 µM; at VEGF-A it was 34 µM; with Human neutrophils [2], 2.54 µM. In the experiment on Human neutrophils [2] (0.3 μM), this compound returned an inhibition at 0.3 µM of 57.7%.
`O=C(O)c1ccc(NC(=O)c2cc(O)cc(C(=O)O)c2O)cc1C(=O)O` [IIa-014a, 4-(3-carboxy-2,5-dihydroxybenzamido)phthalic acid]: in the experiment on Human neutrophils [1], the Neutrophil adhesion inhibition stood at 21.5%. Also, the IC50 was found to be 61 µM at FGF-2, 40 µM at FGF-1, 17.6 µM on VEGFR-2 and 91 µM on VEGF-A. Further, the inhibition at 0.3 µM with Human neutrophils [2] (0.3 μM) was 73.9%.
`O=C(O)Cc1ccccc1NC(=O)c1cc(O)cc(C(=O)O)c1O` [IIa-034a, 3-(2-(carboxymethyl)phenylaminocarbonyl)-2,5-dihydroxybenzoic acid] had a Neutrophil adhesion inhibition with Human neutrophils [1] of 26.58%. Besides, the IC50 was 5.7 µM on FGF-2, 22 µM on FGF-1, not below 100 µM on VEGFR-2 and 86 µM at VEGF-A. The compound further yielded an inhibition at 0.3 µM in the experiment with Human neutrophils [2] (0.3 μM) of 69.2%.
Regarding `O=C(O)c1cc(NC(=O)c2cc(O)cc(C(=O)O)c2O)cc(NC(=O)c2cc(O)cc(C(=O)O)c2O)c1` [IIb-010a, 3,5-Bis(2,5-dihydroxy-3-carboxybenzoylamino)benzoic acid], the Neutrophil adhesion inhibition with Human neutrophils [1] came out at 59.84%. The IC50 on FGF-2 was 102 µM; on FGF-1, not below 200 µM; on VEGF-A, 28 µM. In the experiment with Human neutrophils [2] (0.3 μM), this compound came in with an inhibition at 0.3 µM of 81.9%.
The compound `CCOC(=O)c1cc(OC(C)=O)c(C(=O)Nc2ccccc2-c2nnn[nH]2)cc1OC(C)=O` [Ia-001a-Tz-E1-A2, ethyl 4-(2-(1H-tetrazol-5-yl)phenylaminocarbonyl)-2,5-diacetoxybenzoate] registered a Neutrophil adhesion inhibition in the experiment with Human neutrophils [1] of 98.2%. In addition, the IC50 on FGF-2 is not below 200 µM; on FGF-1, 60 µM; on VEGF-A, not below 200 µM. This compound also had an inhibition at 0.3 µM with Human neutrophils [2] (0.3 μM) of 49.9%.
In turn, `O=C(O)c1cc(O)c(C(=O)Nc2ccc(O)cc2C(=O)O)cc1O` [Ia-006a, 4-(2-carboxy-4-hydroxyphenylaminocarbonyl)-2,5-dihydroxybenzoic acid] yielded a Neutrophil adhesion inhibition in the experiment on Human neutrophils [1] of 25.33%. Moreover, the half-maximal inhibitory concentration (IC50) is 89 µM on FGF-1, 11.8 µM at VEGFR-2, not below 100 µM at VEGF-A and 1.2 µM in the experiment on Human neutrophils [2]. Moreover, the inhibition at 0.3 µM with Human neutrophils [2] (0.3 μM) amounted to 60.6%.
As for `O=C(O)c1cc(O)c(C(=O)NC(C(=O)O)c2ccc(O)c(O)c2)cc1O` (stereo not shown) [Ia-036a, 4-(Carboxy(3,4-dihydroxyphenyl)methylaminocarbonyl)-2,5-dihydroxybenzoic acid], in the experiment with Human neutrophils [1], the Neutrophil adhesion inhibition stood at 30.77%. Moreover, the IC50 is 37 µM at FGF-2, 1.6 µM at VEGFR-2 and 123 µM at VEGF-A. Besides, in the experiment with Human neutrophils [2] (0.3 μM), the “PMN ROS inhibition at 0.3 μM” value came to 87.17%.
In turn, `COC(=O)c1cc(NC(=O)c2cc(O)c(C(=O)Nc3ccccc3-c3nnn[nH]3)cc2O)ccc1O` [Ic-001a-Tz/004a-E1, methyl 5-(4-(2-(1H-tetrazol-5-yl)phenylaminocarbonyl)-2,5-dihydroxybenzamido)-2-hydroxybenzoate] returned a Neutrophil adhesion inhibition with Human neutrophils [1] of 97.56%. The IC50 on FGF-1 was 104 µM; at VEGFR-2, 0.1 µM; on VEGF-A it was 35 µM. In the experiment with Human neutrophils [2] (0.3 μM), this compound had an inhibition at 0.3 µM of 74%.
`O=C(Nc1ccc(O)cc1C(=O)O)c1cc(O)c(C(=O)Nc2ccc(O)cc2C(=O)O)cc1O` [Ic-009a, 2-(2,5-dihydroxy-4-(4-hydroxy-2-carboxyphenylaminocarbonyl)benzamido)-5-hydroxy benzoic acid] showed a Neutrophil adhesion inhibition in the experiment with Human neutrophils [1] of 72.21%. The concentration for half-maximal inhibition (IC50) at FGF-2 amounted to 202 µM; at FGF-1 it was 32 µM; at VEGF-A, 208 µM. In the experiment on Human neutrophils [2] (0.3 μM), this compound registered an inhibition at 0.3 µM of 72.8%.

What is called IC50 is the concentration at which inhibition is half-maximal. What is called inhibition is the percentage by which the read-out fell short of the control. Lower therefore signals a response near the control.
